Laboratory results as given in ChEMBL document CHEMBL3507680, “University of Dundee, Gates Library screen for HepG2 cell viability”.

Test: Human HepG2 cell viability assay in 384 well format
Type: toxicity, cell-based
Set-up: dose 125 nL, time 70.5 hour; cytotoxicity at 70.5 h: concentration not given beside the values
Settings: HepG2 cells, read-out: Inhibition
Work on `Cc1ccc(CN2CCN(C3CCCC3)CC2CCO)o1` (configuration not stated) yielded a cytotoxicity at 70.5 h of 8.76%. For `Cc1cc(COC(=O)[C@@H]2Cc3ccccc3CN2S(C)(=O)=O)no1`, the cytotoxicity at 70.5 h was 1.54%. With `Cc1nccn1C1CCCN(C(=O)c2cnc[nH]2)C1` (configuration not stated) the cytotoxicity at 70.5 h was -0.305%. Work on `c1ccc(CCNc2ncnc3c2CCN(Cc2c[nH]cn2)CC3)cc1` yielded a cytotoxicity at 70.5 h of -0.00958%. With `CC(C)COc1ccccc1C(N)CC(C)C` (configuration not stated) the cytotoxicity at 70.5 h was -10.1%. For `Cc1nn(C)c(Cl)c1C1CCCN1Cc1ccc(C(N)=O)cc1` (configuration not stated), the cytotoxicity at 70.5 h was -7.15%. `CCn1cc2c(n1)CN(Cc1cnn(C)c1)CC2COCC1CC1` (configuration not stated) showed a cytotoxicity at 70.5 h of -11.6%. With `O=S1(=O)c2ccccc2C2(CCN(Cc3ccccc3)C2)N1CC1CC1` (configuration not stated) the cytotoxicity at 70.5 h was -5.62%. `COCCNC(=O)NC(=O)CNc1c(F)cccc1N1CCCC1` gave a cytotoxicity at 70.5 h of -16.6%. For `CC(C)=CCN1C[C@H]2CC[C@@H]1CN(C(=O)Cc1c(C)nc(C)[nH]c1=O)C2`, the cytotoxicity at 70.5 h was 1.03%. `CCCC(=O)NCc1cc(Br)c(OC)c(OC)c1` showed a cytotoxicity at 70.5 h of -6.96%. With `CCN1CC(C(=O)NCCOc2ccc3c(c2)OCO3)CC1=O` (configuration not stated) the cytotoxicity at 70.5 h was -1.5%. Work on `Cc1ccc(-c2cc(C(=O)NCCCc3csc(N)n3)[nH]n2)o1` yielded a cytotoxicity at 70.5 h of 1.47%. `Cc1csc(N2CCN(C(=O)C(C(C)C)n3cncn3)CC2)n1` (configuration not stated) showed a cytotoxicity at 70.5 h of -1.51%. With `c1cnc(N2CCC(c3nccn3CC3CC3)CC2)nc1` the cytotoxicity at 70.5 h was -2.28%. Compound `CN(Cc1ccncc1)C(=O)c1ccc2c(c1O)OC(C)(C)C2` has a cytotoxicity at 70.5 h of -5.32%. With `COc1ccccc1C(=O)N1CCN(CCc2scnc2C)CC1` the cytotoxicity at 70.5 h was -7.23%. Work on `O=C(Cn1ccc2sccc2c1=O)NCc1ccc2c(c1)OCO2` yielded a cytotoxicity at 70.5 h of -6.54%. `COc1nc2c(cc1C(=O)NC(C)Cc1cc(C)n[nH]1)CCC2` (configuration not stated) gave a cytotoxicity at 70.5 h of -12%. `CCS(=O)(=O)N1CCC2(CCCC(=O)N2C)CC1` showed a cytotoxicity at 70.5 h of -11%. With `CCS(=O)(=O)Nc1ccc(C(=O)NCCCN2CCCC2)cc1` the cytotoxicity at 70.5 h was -4.61%. `CCOc1cccc(COC(=O)c2cc(Cl)ccn2)n1` showed a cytotoxicity at 70.5 h of 25.2%. With `Cc1noc(C)c1CNS(=O)(=O)N(C)Cc1ccccc1Br` the cytotoxicity at 70.5 h was -9.08%. With `Cc1cccc(CN2CCC3(CCN(c4ncccn4)C3)C2=O)c1` (configuration not stated) the cytotoxicity at 70.5 h was -8.75%. For `Cn1cc(CN2CCO[C@H]3CN(Cc4ccsc4)C[C@H]32)cn1`, the cytotoxicity at 70.5 h was -14%. With `Cc1noc(CNc2ccc(OC(F)F)cc2OC(F)F)n1` the cytotoxicity at 70.5 h was -2.77%. `COCC(=O)Nc1ccc(N2CCC(OC)CC2)c(C(F)(F)F)c1` showed a cytotoxicity at 70.5 h of -0.835%. Compound `Cc1c(S(=O)(=O)N2CCOCC2)cc2c(C)cc(=O)n3c2c1CCC3` has a cytotoxicity at 70.5 h of 0.511%. With `COc1ccc(C(=O)N(C)Cc2nnc3ccccn23)c(OC)c1OC` the cytotoxicity at 70.5 h was -11.4%. `c1ncn(CC2CCCN(Cc3noc(C4CC4)n3)C2)n1` (configuration not stated) showed a cytotoxicity at 70.5 h of -12.6%. In the case of `CCOCC(O)CN1CCN(C(=O)C(C)(C)CC)CC1` (configuration not stated), the cytotoxicity at 70.5 h is reported as 18.6%. Compound `CCn1nnc2c1C(COCC(=O)N(C)C)CN(Cc1ccoc1)C2` (configuration not stated) has a cytotoxicity at 70.5 h of -0.882%. For `CSc1ccc(C(=O)N2CC(=O)N(CC(C)(C)C)CC(O)C2)cc1` (configuration not stated), the cytotoxicity at 70.5 h was -0.234%. For `Cc1ccc(N2CCC3(CCN(Cc4csc(C)n4)C3=O)C2)nn1` (configuration not stated), the cytotoxicity at 70.5 h was -3.25%. `CS(=O)(=O)N1CCOCC2(CCN(C(=O)c3cccnc3)CC2)C1` gave a cytotoxicity at 70.5 h of -7.84%. Compound `COc1ccccc1-c1cc(C(=O)N(C)C)nc2c1cnn2C` has a cytotoxicity at 70.5 h of -11.4%. Work on `CCC1(CC)C(=O)NC(=O)N=C1Nc1ccc(C)cc1` yielded a cytotoxicity at 70.5 h of -10.3%. In the case of `CN1CCN(CC[C@@H]2CC[C@H](O)[C@@H](C(=O)Nc3ccccc3)O2)CC1`, the cytotoxicity at 70.5 h is reported as 1.15%. `O=C(Cn1cc(-c2ccccc2)cn1)NC(C1CC1)C1CC1` gave a cytotoxicity at 70.5 h of -5.32%. Work on `CCN(C(=O)COc1nc(Cc2ccc(F)cc2)no1)C1CC1` yielded a cytotoxicity at 70.5 h of -5.41%. Compound `c1cnnc(N2CCC(c3nnc(Cn4ccnc4)n3C3CC3)CC2)c1` has a cytotoxicity at 70.5 h of -4.27%. In the case of `COCCN1CCC(CNC(=O)c2cc(C)cc(C)c2)C1` (configuration not stated), the cytotoxicity at 70.5 h is reported as -11.9%. In the case of `OC(c1ccccc1)c1cn(C2CCN(Cc3nccs3)CC2)nn1` (configuration not stated), the cytotoxicity at 70.5 h is reported as -11.3%. Compound `COCC(=O)N1CCC2(CCCN(Cc3cnn(C)c3)C2)C1` (configuration not stated) has a cytotoxicity at 70.5 h of -3.28%. With `Cc1nsc(NC(=O)NC2CCOCC2)n1` the cytotoxicity at 70.5 h was 13.1%. Work on `O=C1NCCCN1Cc1nc(-c2ccc(N3CCCCC3)cc2)no1` yielded a cytotoxicity at 70.5 h of -1.73%. In the case of `Cc1nc(Nc2nnc(C)s2)cc(C2CCCN2)n1` (configuration not stated), the cytotoxicity at 70.5 h is reported as -6.91%. For `COc1cc(C)c(CN2CCC3(CC2)[C@H](O)C[C@@H]3OCCN)cc1C`, the cytotoxicity at 70.5 h was 28.1%. In the case of `Cc1ccc(CNC(=O)N(C)Cc2ccc([S+](C)[O-])cc2)s1` (configuration not stated), the cytotoxicity at 70.5 h is reported as -6.72%. `COc1ccc(CN(Cc2cc(C)no2)C2CC2)cc1` gave a cytotoxicity at 70.5 h of 0.248%. `C=Cc1cccc(CN2C[C@@H](CN(C)CC)[C@@H](CO)C2)c1` gave a cytotoxicity at 70.5 h of 3.14%. `CCn1nc(C)cc1NC(=O)CCn1nc(C)c2ccccc21` showed a cytotoxicity at 70.5 h of -10.1%. For `COc1cc(C(=O)N(CCC#N)Cc2ccccn2)cc(OC)c1C`, the cytotoxicity at 70.5 h was -6.63%. `Cc1ccc(C(=O)N2C[C@@H]3CN(c4ncccn4)C[C@@H]3C2)cc1` showed a cytotoxicity at 70.5 h of -4.94%. With `CN1CC2(CCCCN2C(=O)c2ccsc2)CC1=O` (configuration not stated) the cytotoxicity at 70.5 h was 5.12%. For `COCCCC1(C(=O)O)CCCN(C(=O)c2ccc(Cl)cc2F)C1` (configuration not stated), the cytotoxicity at 70.5 h was -10.9%. `Cc1cc(C)c2c(OCC(=O)N(C)CC(=O)NC(C)C)nn(C)c2n1` gave a cytotoxicity at 70.5 h of -19.9%.
